Experimental data from patent US10253024B2, “Polycyclic indoline and indolenine compounds” (The Regents of the University of Colorado, a body corporate, priority 2015, dated 2019).
Values after ≈ are worked out from the molar mass of the structure shown. Structures can show the parent of a compound that is named as a salt.

Experiments:
[1] = system: multi-drug resistant MRSA strain, ATCC BAA-44; assay: Minimum re-sensitizing concentration (MRC) for cefazolin; assay type: cell-based, S. aureus; details: MRSA ATCC BAA-44; re-sensitizing to cefazolin
Protocol: (§1) ATIs 11-14 represent a wide range of clogD values and their minimum re-sensitizing concentrations (MRCS) for cefazolin (i.e., a first-generation cephalosporin) and amoxicillin/clavulanic acid (i.e., Augmentin, amox/clav) was evaluated as well as their minimum inhibitory concentrations (MICs) in a multi-drug resistant MRSA strain, ATCC BAA-44. Any compounds with promising MRC and MIC were then evaluated for potential mammalian toxicity by determining their half growth inhibitory concentrations (GI50) in human cervical adenocarcinoma (HeLa) cells.
(§2) Antibiotic MIC values where S. aureus is considered susceptible were determined from the CLSI handbook. MHB was supplemented with the antimicrobial at a concentration two fold greater than the CLSI susceptible MIC value. Two-fold serial dilutions of 11b were prepared in antibiotic supplemented media in 96-well microplates. These were inoculated with MRSA diluted to OD600 0.002 and incubated at 37° C. with shaking for 18 hours before results were interpreted. The concentration of 11b in antibiotic supplemented media at which there was no observable growth was considered the minimum resensitizing concentration (MRC). For amoxicillin/clavulanic acid, the initial concentration was 8/4 μg/mL; for cefazolin, 16 μg/mL. A 50 μL portion of the antibiotic containing media was added to each well of 96-well plates, and 100 μL was added to the top row. A 1.28 μL portion of 5 mg/mL 11b was added to the top row of each plate to afford a concentration of 64 μg/mL in the top row of each plate, and 2-fold serial dilutions were performed down the columns. Once the plates were prepared, a day culture of MRSA was diluted to OD600 0.002, and 50 μL was added to each well. The final concentration of MRSA added was OD600 0.001, the final concentration of amoxicillin/clavulanic acid was 4/2 μg/mL, the final concentration of cefazolin was 8 μg/mL, and the highest concentration of 11b tested was 32 μg/mL. Plates were incubated overnight at 37° C. with shaking. The MRC value was determined as the concentration of 11b in the presence of antibiotic at which there was no observable overnight growth.

[2] = system: multi-drug resistant MRSA strain, ATCC BAA-44; assay: Minimum re-sensitizing concentration (MRC) for amoxicillin/clavulanic acid; assay type: cell-based, S. aureus; details: MRSA ATCC BAA-44; re-sensitizing to amoxicillin/clavulanic acid
Protocol: as §1, §2

[3] = system: multi-drug resistant MRSA strain, ATCC BAA-44; assay: Minimum inhibitory concentration (MIC) of the compound alone; assay type: cell-based, S. aureus; details: for MIC: Staphylococcus aureus, MRSA ATCC BAA-44, compound alone; for antibacterial activity on its own (in words): MRSA BAA-44
Protocol: as §1
(§3) The minimal inhibitory concentrations (MICS) of antimicrobial compounds and 11b were determined by the broth microdilution method detailed in the Clinical and Laboratory Standards Institute (CLSI) handbook. All antimicrobial compounds were purchased from Sigma-Aldrich. The growth media used for all MIC experiments was Mueller Hinton Broth (MHB) purchased from HIMEDIA through VWR (cat: 95039-356). The inoculum was prepared by diluting a bacterial day culture (OD600 0.15-0.4) to OD600 0.002. This dilution was further diluted two fold when added to 96 well microplates (USA Scientific CytoOne 96-well TC plate, cat: CC7682-7596) for a final inoculum concentration of OD600 0.001. All plates were incubated at 37° C. with shaking for 18 hours before results were interpreted.

[4] = Half growth inhibitory concentration (GI50), mammalian toxicity; assay type: cell-based; details: human, HeLa cells (human cervical adenocarcinoma)
Protocol: as §1
To evaluate the cytotoxicity of 11b in mammalian cells, a cell viability assay was carried out using CellTiter-Glo luminescent cell viability assay kit (Promega). Human cervical adenocarcinoma HeLa cells were seeded on white, cell-culture treated 96-well plates (Corning: 3917) with Dulbecco's modified Eagle's medium (DMEM) supplemented with 10% fetal calf serum (FCS), 1% penicillin/streptomycin, at the densities of 20,000 cells/well. The medium volume for each well was 100 μL. Cells were incubated at 37° C. in 5% CO2/95% air for 16 hours. The medium was removed from each well and replaced with 99 μL of warmed fresh medium. To each well was then added 1.0 μL of 11b in DMSO with the final concentrations of 1.56-200 μg/mL. Each concentrate was performed in two replicates. After incubation at 37° C. for another 24 hours, the plates were equilibrated to room temperature for 30 minutes. 100 μL of CellTiter-Glo reagent (Promega) was added to each well and mixed for 2 minutes on an orbital shaker. The plate was incubated at room temperature for another 10 minutes to stabilize luminescent signal. The luminescence of each sample was recorded in an Envision Multilabel Plate Reader (Perkin Elmer).

MRSA BAA-44 = assay: MIC of antibiotics in absence and presence of 11b (broth microdilution); assay type: cell-based, S. aureus
Description: The MICs of a variety of antibiotics in the presence and absence of 11b, respectively. In addition to methicillin, BAA-44 is also resistant to a wide range of antibiotics, such as tetracycline, erythromycin, and daptomycin. As shown in Table 2-3, compound 11b potentiates the activity of all β-lactams tested, such as oxacillin, amox/clav, cefazolin, and meropenem. Without being bound by any theory, it is believed compound 11b and other compounds of the invention are selective potentiators of β-lactams.
as §3
The MRSA strain ATCC BAA-44 was used to determine the MIC values of various antimicrobial compounds in the presence of 10 μM 11b. The experiment was conducted similarly to the CLSI MIC determination described previously; however, MHB was supplemented with 20 μM 11b prior to set up and inoculation. The final concentration of 11b after inoculation with BAA-44 was 10 μM.

in vitro = details: dog, MDCK
Protocol: To test this, permeability assessments were performed using MDCK cells.

MIC [3] [µg/mL]	SMILES	MRC Cef [1] [µg/mL]	MRC Amox/clav [2] [µg/mL]	also measured
8 (≈ 16 µM)	C=C1CNC[C@@H]2Nc3c(F)cc(Br)cc3[C@]12CCNS(=O)(=O)c1ccc(Cl)cc1 [NH-ATI 12, N-(2-((4aS,9aR)-6-bromo-8-fluoro-4-methylene-1,2,3,4,9,9a-hexahydro-4aH-pyrido[3,4-b]indol-4a-yl)ethyl)-4-chlorobenzenesulfonamide]	4	4	GI50 at 24 h [4]: 6.7 µg/mL (≈ 13.4 µM); antibacterial activity on its own (in words) [3]: potent antibacterial activity on its own
> 32	C=C1CN(C(=O)C(F)(F)F)C[C@@H]2Nc3c(F)cc(Br)cc3[C@]12CCNS(=O)(=O)c1ccc(Cl)cc1 [TFA-ATI 11c, N-(2-((4aS,9aR)-6-bromo-8-fluoro-4-methylene-2-(2,2,2-trifluoroacetyl)-1,2,3,4,9,9a-hexahydro-4aH-pyrido[3,4-b]indol-4a-yl)ethyl)-4-chlorobenzenesulfonamide]	4	4	GI50 at 24 h [4]: 19 µg/mL; antibacterial activity on its own (in words) [3]: without observable antibacterial activity

The next lines start with the molecule.

SMILES	MIC [3] [µg/mL]	MRC Cef [1] [µg/mL]	MRC Amox/clav [2] [µg/mL]	also measured
C=C1CN(S(C)(=O)=O)C[C@@H]2Nc3c(F)cc(Br)cc3[C@]12CCNS(=O)(=O)c1ccc(Cl)cc1 [Ms-ATI 11b, N-(2-((4aS,9aR)-6-bromo-8-fluoro-4-methylene-2-(methylsulfonyl)-1,2,3,4,9,9a-hexahydro-4aH-pyrido[3,4-b]indol-4a-yl)ethyl)-4-chlorobenzenesulfonamide]	> 32	>32	>32	–
C=C1CN(S(=O)(=O)c2ccc([N+](=O)[O-])cc2)C[C@@H]2Nc3c(F)cc(Br)cc3[C@]12CCNS(=O)(=O)c1ccc(Cl)cc1 [Ns-ATI 11a, N-(2-((4aS,9aR)-6-bromo-8-fluoro-4-methylene-2-((4-nitrophenyl)sulfonyl)-1,2,3,4,9,9a-hexahydro-4aH-pyrido[3,4-b]indol-4a-yl)ethyl)-4-chlorobenzenesulfonamide]	> 32	>32	>32	–
Cc1onc(-c2ccccc2)c1C(=O)N[C@@H]1C(=O)N2[C@@H]1SC(C)(C)[C@@H]2C(=O)O [Oxacillin]	–	–	–	Fold of potentiation (MRSA BAA-44; MIC alone versus with 10 μM 11b): 32; MIC (MRSA BAA-44; Staphylococcus aureus, antibiotic alone): 32 µg/mL; MIC (+11b) (MRSA BAA-44; in the presence of 10 μM 11b): 1 µg/mL
OC[C@@H](O)[C@@H](O)[C@H](O)[C@H](O)CO [mannitol]	–	–	–	Papp (in vitro): 1.51 ×10⁻⁶ cm/s
COCCc1ccc(OCC(O)CNC(C)C)cc1 (stereo not drawn) [metoprolol]	–	–	–	Papp (in vitro): 53.5 ×10⁻⁶ cm/s
